Columns and labels:
DCN1 = DCN1 (Homo sapiens, UniProt Q96GG9); assay: Intact-protein mass spectrometric analysis, Method B (DCN1); format: binding; conditions: 1 h incubation, 100 nM protein
Procedure: Method B: Recombinant DCN1 or DCN3 protein (100 nM in 25 mM Tris 7.5, 200 mM NaCl, 1 mM DTT buffer) was incubated with 1.2-fold excess of the DCN1 inhibitors at 37 °C for 10 min, 1 h, or 3 h. Following incubation, the protein was analyzed by LC–MS (Agilent Q-TOF 6545) under the following conditions: fragmentor voltage, 300 V; skimmer voltage, 75 V; nozzle voltage, 100 V; sheath gas temperature, 350 °C; and drying gas temperature, 325 °C. MassHunter Qualitative Analysis software (Agilent) was used to analyze the data. Intact protein masses were obtained using the maximum entropy deconvolution algorithm. The mass spectrometry data in Supplementary Figs. 14–17 were generated by Method B.

four cancer cell lines = assay: Cell viability assay (WST-8), four cancer cell lines; format: cell-based, human; conditions: concentrations up to 1000 nM, 72 h
Procedure: Cell viability assay was performed as previously described. The effect of DCN1 inhibitors on cell growth was evaluated by a WST-8 [2-(2-methoxy-4-nitrophenyl)-3-(4-nitrophenyl)-5-(2,4-disulfophenyl)-2H-tetrazolium, monosodium salt assay (Dojindo Molecular Technologies, Inc). Cells (2000–3000 cells in each well) were seeded in 96-well tissue culture plates in medium (100 μL) and treated with serial dilution of DCN1 inhibitors for 3 days. At the end of incubation, WST-8 dye (20 μL) was added to each well and incubated for 1–3 h, then the absorbance was measured in a microplate reader (Molecular Devices) at 450 nm. Cell growth inhibition was evaluated as the ratio of the absorbance of the sample to that of the control. The values were inserted into Prism software, and the curves and the EC50 values were produced by Prism software.

neddylation of cullin 3 = assay: Western blot, cullin 3 neddylation in THLE2 liver cells; format: cell-based, human
Procedure: Western blotting was performed as described previously. Treated cells were lysed by RIPA buffer supplemented with protease inhibitor. The expression level of indicated proteins was examined by immunoblotting analysis and GAPDH was used as the loading control. Antibodies were purchased commercially: cullin 1 (sc-17775, 1:500 dilution) and cullin 2 (sc-166506, 1:500 dilution) from Santa Cruz Biotech (Santa Cruz, CA); cullin 4A (PA5-14542, 1:1000 dilution), cullin 4B (PA5-50647, 1:1000 dilution), and DCN3 (DCUN1D3, PA5-44000, 1:1000 dilution) from Thermo Fisher Scientific (Wayne, MI); cullin 3 (2759, 1:1000), NRF2 (12721, 1:1000 dilution), HO-1 (70081, 1:1000 dilution), and Bim (2819, 1:1000 dilution) from Cell Signaling Technology (Boston, MA); DCN1 (GWB-E3D700, 1:1000 dilution) from GenWay Biotech (San Diego, CA); and cullin 5 (A302-173A, 1:500 dilution) from Bethyl Labs (Montgomery, TX). Results are representative of two independent experiments.

[1] = test system: APAP-induced liver injury; assay: APAP-induced liver injury: H&E histology of liver; format: in vivo, mouse
Procedure: The in vivo studies were performed under animal protocols (PRO00007499) and (PRO00006638) approved by the Institutional Animal Care & Use Committee of the University of Michigan, in accordance with the recommendations in the Guide for the Care and Use of Laboratory Animals of the National Institutes of Health. C57BL/6 WT mice (~8 weeks, male, normal chow) were purchased from the Jackson Laboratory and randomly divided into eight groups (8–9 mice per group) treated (IP) as follows: phosphate-buffered saline vehicle once per day for 3 days (G1), APAP alone a single dose at 400 mg/kg on day 1 (G2), DI-1859 alone 25 mg/kg once per day for 3 days (G3), DI-1859 alone 50 mg/kg once per day for 3 days (G4), pretreatment (1 day before the APAP administration) with DI-1859 at 25 mg/kg once per day for 3 days followed with APAP at 400 mg/kg on day (G5), pretreatment (1 day before the APAP administration) with DI-1859 at 50 mg/kg once per day for 3 days followed with APAP at 400 mg/kg on day (G6), APAP a single dose at 400 mg/kg (3 h before the first DI-1859 administration) followed with DI-1859 at 25 mg/Kg once per day for 3 days (G7), and APAP a single dose at 400 mg/kg (3 h before the first DI-1859 administration) followed with DI-1859 at 50 mg/Kg once per day for 3 days (G8).
To induce acute liver injury, animals received PBS or APAP (400 mg/kg, sigma, A7085) through I.P. injection at 12 p.m. and were sacrificed 48 h afterward. To examine the protective effect of DI-1859 (groups 5 and 6), animals were I.P. injected with compound for 3 consecutive days (9 a.m. on each day, starting 1 day before APAP administration). To examine the restorative effect of DI-1859 (groups 7 and 8), animals were I.P. injected with compound 3 h after APAP administration followed by two additional treatments (9 a.m. on the next 2 days). Body weight and blood glucose level measurement, along with blood sample collection, were performed at 12 p.m. on each day.
Liver paraffin sections were stained with H&E.

DCN1, sequence (Q96GG9 whole entry, the tested form may be a part): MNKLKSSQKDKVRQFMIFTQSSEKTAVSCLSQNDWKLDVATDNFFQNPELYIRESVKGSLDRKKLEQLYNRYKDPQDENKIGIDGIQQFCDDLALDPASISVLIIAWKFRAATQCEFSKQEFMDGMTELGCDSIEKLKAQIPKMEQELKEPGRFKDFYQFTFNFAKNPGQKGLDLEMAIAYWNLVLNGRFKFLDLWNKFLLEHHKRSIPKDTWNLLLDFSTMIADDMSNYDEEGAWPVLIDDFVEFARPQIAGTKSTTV

| covalent complex formation with DCN1 (DCN1) | Structure (SMILES) | cytotoxicity / cell viability (four cancer cell lines) | times more potent than MLN4924 in inhibition of the neddylation of cullin 3 (neddylation of cullin 3) | liver tissue damage by the compound alone ([1]; 25 and 50 mg/kg qD for 3 days (G3, G4), ALT and histology) | effect on APAP-induced liver tissue damage (histology) ([1]; prevention setting, 25 mg/kg) | effect on APAP-induced liver tissue damage (histology) ([1]; prevention setting, 50 mg/kg) | effect on APAP-induced liver tissue damage (histology) ([1]; treatment setting, 25 and 50 mg/kg) |
| --- | --- | --- | --- | --- | --- | --- | --- |
| rapid and complete formation | C=C(CN1CCOCC1)C(=O)NC[C@@H](NC(=O)[C@H](Cc1nc2ccc(C(C)C)cc2s1)NC(=O)CC)C1CCCCC1 [DI-1548] | no cytotoxicity |  |  |  |  |  |
|  | C=C(CN(C)C)C(=O)NC[C@@H](NC(=O)[C@H](Cc1nc2ccc(C(C)C)cc2s1)NC(=O)CC)C1CCCCC1 [DI-1859] |  | ~ 30 times | caused no liver tissue damage | largely abolished tissue distortion and greatly reduced acetaminophen-induced tissue damage | near completely prevented APAP-induced liver tissue damage | significantly reduced the liver damage induced by APAP |
